Assay results from BindingDB's records for doi:10.1016/j.bmcl.2004.12.007 (Cerep, 2005).

Target: Integrin alpha-L/beta-2 (Homo sapiens, UniProt P05107+P20701)
Experiment: Inhibitory concentration against leukocyte function-associated antigen-1 in HSB-2 human lymphoblast and H1HeLa cell adhesion assay

Chain of Integrin alpha-L/beta-2 (P20701 whole entry): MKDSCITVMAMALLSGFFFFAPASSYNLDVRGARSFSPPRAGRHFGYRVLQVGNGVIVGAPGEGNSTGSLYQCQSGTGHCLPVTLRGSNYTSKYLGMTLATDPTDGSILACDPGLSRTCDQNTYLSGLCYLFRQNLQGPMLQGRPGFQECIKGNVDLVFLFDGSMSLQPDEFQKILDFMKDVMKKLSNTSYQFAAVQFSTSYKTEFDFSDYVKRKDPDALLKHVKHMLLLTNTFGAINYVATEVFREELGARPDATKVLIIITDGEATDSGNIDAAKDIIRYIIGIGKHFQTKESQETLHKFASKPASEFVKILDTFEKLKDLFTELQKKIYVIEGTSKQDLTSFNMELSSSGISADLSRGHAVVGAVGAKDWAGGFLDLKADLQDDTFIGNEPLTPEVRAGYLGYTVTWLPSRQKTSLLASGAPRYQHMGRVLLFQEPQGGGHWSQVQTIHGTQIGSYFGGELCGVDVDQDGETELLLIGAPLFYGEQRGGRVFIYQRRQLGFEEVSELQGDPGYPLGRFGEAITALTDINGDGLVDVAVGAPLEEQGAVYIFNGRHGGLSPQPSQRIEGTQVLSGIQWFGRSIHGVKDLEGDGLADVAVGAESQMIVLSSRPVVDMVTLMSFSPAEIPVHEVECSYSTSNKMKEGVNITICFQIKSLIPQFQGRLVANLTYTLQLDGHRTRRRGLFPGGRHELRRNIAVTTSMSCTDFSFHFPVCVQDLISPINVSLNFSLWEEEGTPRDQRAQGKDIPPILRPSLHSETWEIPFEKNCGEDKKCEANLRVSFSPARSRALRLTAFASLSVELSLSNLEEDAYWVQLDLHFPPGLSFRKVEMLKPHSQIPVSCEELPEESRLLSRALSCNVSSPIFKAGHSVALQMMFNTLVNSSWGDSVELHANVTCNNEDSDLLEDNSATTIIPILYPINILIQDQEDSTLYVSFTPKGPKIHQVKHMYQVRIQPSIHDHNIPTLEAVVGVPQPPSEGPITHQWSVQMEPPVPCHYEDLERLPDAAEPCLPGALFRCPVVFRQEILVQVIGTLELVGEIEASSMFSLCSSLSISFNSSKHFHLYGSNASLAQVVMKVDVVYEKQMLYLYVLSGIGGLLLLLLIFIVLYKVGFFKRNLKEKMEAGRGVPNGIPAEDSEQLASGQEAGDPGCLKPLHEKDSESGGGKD
Chain of Integrin alpha-L/beta-2 (P05107 whole entry H354Q): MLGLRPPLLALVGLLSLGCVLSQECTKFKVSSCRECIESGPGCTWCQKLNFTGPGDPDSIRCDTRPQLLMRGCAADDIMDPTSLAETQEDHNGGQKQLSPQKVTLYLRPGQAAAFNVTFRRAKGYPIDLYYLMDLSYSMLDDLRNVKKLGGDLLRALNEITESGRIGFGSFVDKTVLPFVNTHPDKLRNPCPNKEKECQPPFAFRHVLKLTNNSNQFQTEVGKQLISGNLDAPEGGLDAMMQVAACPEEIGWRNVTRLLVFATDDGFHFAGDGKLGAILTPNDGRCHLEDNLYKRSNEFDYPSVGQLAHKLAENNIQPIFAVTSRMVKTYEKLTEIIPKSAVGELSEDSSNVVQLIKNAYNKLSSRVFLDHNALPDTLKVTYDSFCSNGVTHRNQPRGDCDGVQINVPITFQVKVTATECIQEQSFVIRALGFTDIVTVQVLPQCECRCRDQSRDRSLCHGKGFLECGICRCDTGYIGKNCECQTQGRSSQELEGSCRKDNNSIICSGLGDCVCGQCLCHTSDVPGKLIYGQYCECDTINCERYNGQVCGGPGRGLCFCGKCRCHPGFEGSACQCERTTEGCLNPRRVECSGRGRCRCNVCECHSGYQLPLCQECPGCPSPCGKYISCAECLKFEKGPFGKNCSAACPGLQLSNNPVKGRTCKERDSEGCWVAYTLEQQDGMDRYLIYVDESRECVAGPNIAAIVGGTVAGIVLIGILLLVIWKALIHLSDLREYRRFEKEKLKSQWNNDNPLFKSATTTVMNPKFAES

| SMILES | IC50 [nM] |
| --- | --- |
| N#Cc1ccc(-c2cccc(CN[C@H]3Cc4c(O)n(-c5cc(Cl)cc(Cl)c5)c(=O)n4C3)c2)cc1 [3''-{[(6S,7aS)-2-(3,5-Dichloro-phenyl)-1,3-dioxo-hexahydro-pyrrolo[1,2-c]imidazol-6-ylamino]-methyl}-biphenyl-4-carbonitrile] | 175 |
| CN(Cc1cccc(-c2ccc(Br)cc2)c1)[C@H]1Cc2c(O)n(-c3cc(Cl)cc(Cl)c3)c(=O)n2C1 [(6S,7aS)-6-[(4''-Bromo-biphenyl-3-ylmethyl)-methyl-amino]-2-(3,5-dichloro-phenyl)-tetrahydro-pyrrolo[1,2-c]imidazole-1,3-dione] | 175 |
